# Results published in PubChem BioAssay AID248 (DTP/NCI, 2004).
# “And” between values parts separate entries of the source, which are not always exact repeats. Equal entries are not always repeated. Toxic doses and inconclusive results are not listed.
# Tested on: L1210 leukemia ip in BDF1 mice, survival T/C
# Test: NCI In Vivo Anticancer Drug Screen. Data for tumor model L1210 Leukemia (intraperitoneal) in B6D2F1 (BDF1) mice
# Settings: endpoint: mean survival time, higher = longer survival
# In short: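 Transplanted-tumor mice were given test agent; controls received vehicle only. Survival readings from the two groups were divided (treated over control).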
# [1] = dose: 100.0 mg/kg/injection, schedule: Q01DX001 (ip), vehicle: saline
# [2] = dose: 200.0 mg/kg/injection, schedule: Q01DX001 (ip), vehicle: saline
# [3] = dose: 400.0 mg/kg/injection, schedule: Q01DX001 (ip), vehicle: saline
# [4] = dose: 100.0 mg/kg/injection, schedule: Q04DX003 (ip), vehicle: saline
# [5] = dose: 200.0 mg/kg/injection, schedule: Q04DX003 (ip), vehicle: saline
# [6] = dose: 400.0 mg/kg/injection, schedule: Q04DX003 (ip), vehicle: saline
# [7] = dose: 100.0 mg/kg/injection, schedule: Q01DX009 (ip), vehicle: Klucel (hydroxypropylcellulose) (HPC)
# [8] = dose: 100.0 mg/kg/injection, schedule: Q04DX003 (ip), vehicle: Klucel (hydroxypropylcellulose) (HPC)
# [9] = dose: 200.0 mg/kg/injection, schedule: Q01DX009 (ip), vehicle: Klucel (hydroxypropylcellulose) (HPC)
# [10] = dose: 200.0 mg/kg/injection, schedule: Q04DX003 (ip), vehicle: Klucel (hydroxypropylcellulose) (HPC)
# [11] = dose: 400.0 mg/kg/injection, schedule: Q04DX003 (ip), vehicle: Klucel (hydroxypropylcellulose) (HPC)
# [12] = dose: 75.0 mg/kg/injection, schedule: Q01DX001 (ip), vehicle: saline
# [13] = dose: 150.0 mg/kg/injection, schedule: Q01DX001 (ip), vehicle: saline
# [14] = dose: 100.0 mg/kg/injection, schedule: Q04DX003 (ip), vehicle: saline with Tween-80
# [15] = dose: 200.0 mg/kg/injection, schedule: Q04DX003 (ip), vehicle: saline with Tween-80
# [16] = dose: 25.0 mg/kg/injection, schedule: Q01DX001 (ip), vehicle: Klucel (hydroxypropylcellulose) (HPC)
# [17] = dose: 50.0 mg/kg/injection, schedule: Q01DX001 (ip), vehicle: Klucel (hydroxypropylcellulose) (HPC)
# [18] = dose: 50.0 mg/kg/injection, schedule: Q01DX009 (ip), vehicle: saline with Tween-80
# [19] = dose: 25.0 mg/kg/injection, schedule: Q01DX009 (ip), vehicle: saline with Tween-80
compound,measurement,setting,value
Nc1ccc(SCCC(=O)O)cc1,T/C,"dose: 75.0 mg/kg/injection, schedule: Q01DX001 (ip), vehicle: other",96 % of control and 97 % of control
same,T/C,"dose: 150.0 mg/kg/injection, schedule: Q01DX001 (ip), vehicle: other",105 % of control
COP(=O)(NC(C)=O)OC,T/C,"dose: 100.0 mg/kg/injection, schedule: Q04DX002 (ip), vehicle: saline with Tween-80",108 % of control
same,T/C,"dose: 200.0 mg/kg/injection, schedule: Q04DX002 (ip), vehicle: saline with Tween-80",102 % of control
same,T/C,"dose: 400.0 mg/kg/injection, schedule: Q04DX002 (ip), vehicle: saline with Tween-80",150 % of control
CCC(C#N)(CC)c1ccccc1,T/C,"dose: 50.0 mg/kg/injection, schedule: Q01DX001 (ip), vehicle: saline",113 % of control
same,T/C,[1],107 % of control
same,T/C,[2],89 % of control
same,T/C,[3],101 % of control
O=C1OC(n2ccc3ccccc32)c2ccccc21 (stereo not given),T/C,[1],105 % of control
same,T/C,[4],89 % of control
same,T/C,[2],96 % of control
same,T/C,[5],92 % of control
same,T/C,[3],102 % of control
same,T/C,[6],89 % of control
CCC1CN2CCc3cc(OC)c(OC)cc3C2CC1CC1NCCc2cc(OC)c(OC)cc21 (stereo not given),T/C,"dose: 2.0 mg/kg/injection, schedule: Q04DX003 (ip), vehicle: water",93 % of control
same,T/C,"dose: 4.0 mg/kg/injection, schedule: Q04DX003 (ip), vehicle: water",98 % of control
same,T/C,"dose: 8.0 mg/kg/injection, schedule: Q04DX003 (ip), vehicle: water",94 % of control
same,T/C,"dose: 16.0 mg/kg/injection, schedule: Q04DX003 (ip), vehicle: water",104 % of control
same,T/C,"dose: 32.0 mg/kg/injection, schedule: Q04DX003 (ip), vehicle: water",102 % of control
same,T/C,"dose: 64.0 mg/kg/injection, schedule: Q04DX003 (ip), vehicle: water",100 % of control
CN(N)C(=O)Nc1ccc(Br)cc1,T/C,"dose: 75.0 mg/kg/injection, schedule: Q01DX001 (ip), vehicle: carboxymethylcellulose (CMC)",104 % of control
same,T/C,"dose: 150.0 mg/kg/injection, schedule: Q01DX001 (ip), vehicle: carboxymethylcellulose (CMC)",100 % of control
same,T/C,"dose: 300.0 mg/kg/injection, schedule: Q01DX001 (ip), vehicle: carboxymethylcellulose (CMC)",98 % of control
CC(O)c1ccc(-c2ccccc2)cc1 (stereo not given),T/C,[7],94 % of control
same,T/C,[8],95 % of control
same,T/C,[9],97 % of control
same,T/C,[10],101 % of control
same,T/C,"dose: 400.0 mg/kg/injection, schedule: Q01DX009 (ip), vehicle: Klucel (hydroxypropylcellulose) (HPC)",111 % of control
same,T/C,[11],98 % of control
CCNP(=S)(OCC)OCC,T/C,[12],98 % of control
same,T/C,[13],89 % of control
same,T/C,"dose: 300.0 mg/kg/injection, schedule: Q01DX001 (ip), vehicle: saline",96 % of control
CC(C)(C)C(=O)NO,T/C,"dose: 100.0 mg/kg/injection, schedule: Q04DX002 (ip), vehicle: Klucel (hydroxypropylcellulose) (HPC)",110 % of control
same,T/C,"dose: 200.0 mg/kg/injection, schedule: Q04DX002 (ip), vehicle: Klucel (hydroxypropylcellulose) (HPC)",90 % of control
same,T/C,"dose: 400.0 mg/kg/injection, schedule: Q04DX002 (ip), vehicle: Klucel (hydroxypropylcellulose) (HPC)",102 % of control
CC(C)CCCC(C)C1CCC2C3CC=C4CC(OC(=O)c5cc([N+](=O)[O-])c(N6CC6)c([N+](=O)[O-])c5)CCC4(C)C3CCC12C (stereo not given),T/C,"dose: 50.0 mg/kg/injection, schedule: Q01DX001 (sc), vehicle: steriod suspending solution",110 % of control
same,T/C,"dose: 100.0 mg/kg/injection, schedule: Q01DX001 (sc), vehicle: steriod suspending solution",96 % of control
same,T/C,"dose: 200.0 mg/kg/injection, schedule: Q01DX001 (sc), vehicle: steriod suspending solution",102 % of control
same,T/C,"dose: 400.0 mg/kg/injection, schedule: Q01DX001 (sc), vehicle: steriod suspending solution",96 % of control
Cc1ccc(CO)cc1C,T/C,"dose: 50.0 mg/kg/injection, schedule: Q04DX003 (ip), vehicle: saline with Tween-80",95 % of control
same,T/C,[14],104 % of control
same,T/C,[15],93 % of control
O=[N+]([O-])c1ccccc1CSc1ncnc2nc[nH]c12,T/C,"dose: 132.0 mg/kg/injection, schedule: Q04DX003 (ip), vehicle: saline with Tween-80",102 % of control
same,T/C,[15],100 % of control
same,T/C,"dose: 300.0 mg/kg/injection, schedule: Q04DX003 (ip), vehicle: saline with Tween-80",105 % of control
CN(CCCN1C(=O)c2ccccc2C1=O)c1ccc(N=O)cc1,T/C,[16],101 % of control
same,T/C,[17],95 % of control
same,T/C,"dose: 100.0 mg/kg/injection, schedule: Q01DX001 (ip), vehicle: Klucel (hydroxypropylcellulose) (HPC)",92 % of control and 91 % of control
NC(N)=NNC(=O)C(=O)O,T/C,[14],95 % of control
same,T/C,[15],91 % of control
same,T/C,"dose: 400.0 mg/kg/injection, schedule: Q04DX003 (ip), vehicle: saline with Tween-80",93 % of control
S=P(NCCCCCCNP(=S)(N1CC1)N1CC1)(N1CC1)N1CC1,T/C,"dose: 100.0 mg/kg/injection, schedule: Q01DX001 (ip), vehicle: carboxymethylcellulose (CMC)",104 % of control
same,T/C,"dose: 200.0 mg/kg/injection, schedule: Q01DX001 (ip), vehicle: carboxymethylcellulose (CMC)",112 % of control
same,T/C,"dose: 400.0 mg/kg/injection, schedule: Q01DX001 (ip), vehicle: carboxymethylcellulose (CMC)",119 % of control
C=C(Br)CN(C)C,T/C,[18],117 % of control
same,T/C,[14],96 % of control
same,T/C,[15],102 % of control
Cc1ccc(/C=C(\C#N)C(=O)O)cc1,T/C,"dose: 12.5 mg/kg/injection, schedule: Q01DX009 (ip), vehicle: saline with Tween-80",94 % of control
same,T/C,[19],94 % of control
same,T/C,[18],100 % of control and 88 % of control
NC(N)=N/N=C/Cc1ccccc1,T/C,"dose: 62.5 mg/kg/injection, schedule: Q01DX Z (ip), vehicle: saline",94 % of control
CC(=O)Nc1cccc(Br)c1,T/C,"dose: 50.0 mg/kg/injection, schedule: Q01DX009 (ip), vehicle: Klucel (hydroxypropylcellulose) (HPC)",101 % of control
same,T/C,[7],106 % of control and 90 % of control
same,T/C,[9],95 % of control and 102 % of control
O=S(=O)(OCCCl)c1ccc(Cl)c(Cl)c1,T/C,"dose: 100.0 mg/kg/injection, schedule: Q01DX001 (ip), vehicle: saline with Tween-80",92 % of control
same,T/C,"dose: 200.0 mg/kg/injection, schedule: Q01DX001 (ip), vehicle: saline with Tween-80",100 % of control
same,T/C,"dose: 400.0 mg/kg/injection, schedule: Q01DX001 (ip), vehicle: saline with Tween-80",107 % of control
CCN(CC)c1ccc(C=Nc2cccc(C(F)(F)F)c2)cc1,T/C,[7],105 % of control
same,T/C,[8],92 % of control
same,T/C,[9],94 % of control
same,T/C,[10],94 % of control
same,T/C,[11],97 % of control
COC(CNCCO)c1ccccc1 (stereo not given),T/C,[19],104 % of control
same,T/C,[18],98 % of control
same,T/C,"dose: 100.0 mg/kg/injection, schedule: Q01DX009 (ip), vehicle: saline with Tween-80",106 % of control
C[n+]1c2ccccc2c(-c2c3ccccc3[n+](C)c3ccccc23)c2ccccc21,T/C,"dose: 12.5 mg/kg/injection, schedule: Q01DX001 (ip), vehicle: Klucel (hydroxypropylcellulose) (HPC)",102 % of control
same,T/C,[16],98 % of control
same,T/C,[17],98 % of control
CS(=N)(=O)c1ccccc1 (stereo not given),T/C,"dose: 100.0 mg/kg/injection, schedule: Q01DX009 (ip), vehicle: other",99 % of control
same,T/C,[4],97 % of control
same,T/C,"dose: 200.0 mg/kg/injection, schedule: Q01DX009 (ip), vehicle: other",95 % of control
same,T/C,[5],100 % of control
same,T/C,"dose: 400.0 mg/kg/injection, schedule: Q01DX009 (ip), vehicle: other",97 % of control
same,T/C,[6],97 % of control
Cc1ccc2c(ccc[n+]2C)c1,T/C,[12],103 % of control
same,T/C,[13],106 % of control
N#Cc1ccc(-c2ccccc2)cc1,T/C,"dose: 50.0 mg/kg/injection, schedule: Q04DX002 (ip), vehicle: other",103 % of control
same,T/C,"dose: 100.0 mg/kg/injection, schedule: Q04DX002 (ip), vehicle: other",95 % of control
same,T/C,"dose: 200.0 mg/kg/injection, schedule: Q04DX002 (ip), vehicle: other",117 % of control
